{"source": "patent US9289411B2", "about": "“Anti-HCV agent” (NATIONAL UNIVERSITY CORPORATION OKAYAMA UNIVERSITY, priority 2011, dated 2016)", "key": {"[1]": {"test": "Cytotoxic effect, WST-1 cell proliferation assay in ORL8 cells", "details": "human", "source_text": "(§1) Assay systems using OR6 cells (HCV-O strain), 1B-4R cells (HCV-1B-4 strain), and AH1R cells (HCV-AH1R strain) as HuH-7 cell-derived full-length HCV-RNA-replicating cells, and ORL8 cells (HCV-O strain), ORL11 cells (HCV-O strain), 1B-4RL cells (HCV-1B-4 strain), and KAH5RL cells (HCV-KAH5 strain) as Li23 cell-derived full-length HCV-RNA-replicating cells were used for the quantitative analysis of anti-HCV activity and evaluation of a cytotoxic effect in the present invention. The three cell lines, i.e., the 1B-4R cells, the 1B-4RL cells, and the KAH5RL cells have been disclosed in WO 2010/026965 A1. The AH1R cells may be produced with reference to Mori K et al., BBRC, 371:104-109, 2008 and WO 2010/026965 A1. In addition, all the HCV strains belong to genotype 1b.\n(§2) In the measurement of the renilla luciferase activity and the measurement by the WST-1 method, experiments were performed in three wells independent of each other, and their means and standard deviation were calculated.\nThe cytotoxic effects of N-89 and N-251 were examined using ORL8 cells and the CC50 values were calculated. An experimental scale and schedule are the same as those in Example 1.\nN-89 and N-251 were added so as to achieve concentrations of 5 μM, a 2-fold dilution series from 5 μM (2.5, 1.3, 0.63, 0.31, 0.16, and 0.08 μM), and 0. The WST-1 cell proliferation assay was performed 72 hours after the culture.\nThe cytotoxic effect of artemisinin was examined using OR6 and ORL8 cells and the CC50 values were calculated. An experimental scale and schedule are the same as those in Example 1. Artemisinin was added so as to achieve concentrations of 400 μM, a 2-fold dilution series from 400 μM (200, 100, 50, 25, and 13 μM), and 0. The WST-1 cell proliferation assay was performed 72 hours after the culture."}, "[2]": {"tested_on": "HCV-RNA replication in ORL8 cells", "test": "Influence of oxidizing agents KNO3 and NaClO4 on anti-HCV activity in ORL8 cells", "format": "cell-based, HCV genotype 1b", "details": "10 μM, 72 hours", "protocol": "The effects of addition of KNO3 and NaClO4 on the anti-HCV activity of N-89 were examined using ORL8 cells.\nN-89 and KNO3 or NaClO4 were simultaneously added so that the concentrations of N-89 and KNO3 or NaClO4 were set to 0.5 μM and 10 μM, respectively. The luciferase activity was measured 72 hours after the culture."}, "[3]": {"test": "Cytotoxic effect, WST-1 cell proliferation assay in OR6 cells", "details": "human", "source_text": "as §1, §2\nAfter 24 hours, N-89 was added so as to achieve concentrations of 20 μM, a 2-fold dilution series from 20 μM (10, 5, 2.5, 1.3, 0.63, and 0.31 μM), and 0, or N-251 was added so as to achieve concentrations of 10 μM, a 2-fold dilution series from 10 μM (5, 2.5, 1.3, 0.63, 0.31, and 0.16 μM), and 0.\nThe cytotoxic effect of artemisinin was examined using OR6 and ORL8 cells and the CC50 values were calculated. […]"}, "[4]": {"tested_on": "HCV-RNA replication in ORL8 cells", "test": "Effect of antioxidant vitamin E on anti-HCV activity in ORL8 cells (luciferase activity)", "format": "cell-based, HCV genotype 1b", "details": "for canceling of the anti-HCV activity by vitamin E: vitamin E 10 μM", "protocol": "The effect of addition of vitamin E on the anti-HCV activity of N-89 was examined using ORL8 cells. An experimental scale and schedule are the same as those in Example 1.\nN-89 and vitamin E were simultaneously added so that the concentrations of N-89 and vitamin E were set to 0.5 μM and 10 μM, respectively. The luciferase activity was measured 72 hours after the culture.\nThe effect of addition of vitamin E on the anti-HCV activity of N-251 was examined using ORL8 cells. An experimental scale and schedule are the same as those in Example 1.\nN-251 and vitamin E were simultaneously added so that the concentrations of N-251 and vitamin E were set to 0.5 μM and 10 μM, respectively. The luciferase activity was measured 72 hours after the culture.\nThe effect of addition of vitamin E on the anti-HCV activity of artemisinin was examined using ORL8 cells. An experimental scale and schedule are the same as those in Example 1.\nArtemisinin and vitamin E were simultaneously added so that the concentrations of artemisinin and vitamin E were set to 100 μM and 10 μM, respectively. The luciferase activity was measured 72 hours after the culture."}, "[5]": {"tested_on": "HCV-RNA replication in ORL8 cells (HCV-O strain, Li23-derived)", "test": "microbe, parasite or virus in culture", "source_text": "as §1\n(§3) As necessary, an increase or decrease in expression level of an HCV protein (core protein) was examined by a Western blot method.\nas §2\nThe anti-HCV activities of N-89 and N-251 were examined using ORL8 cells and the EC50 values were calculated. An experimental scale and schedule are the same as those in Example 1.\nN-89 and N-251 were added so as to achieve concentrations of 5 μM, a 2-fold dilution series from 5 μM (2.5, 1.3, 0.63, 0.31, 0.16, and 0.08 μM), and 0. The luciferase activities were measured 72 hours after the culture.\n(§4) The anti-HCV activity of artemisinin was examined using OR6 cells and ORL8 cells and the EC50 values were calculated. An experimental scale and schedule are the same as those in Example 1.\n(§5) Artemisinin was added so as to achieve concentrations of 100 μM, a 2-fold dilution series from 100 μM (50, 25, 13, 6.3, 3.1, and 1.6 μM), and 0. The luciferase activities were measured 72 hours after the culture."}, "[6]": {"tested_on": "HCV-RNA replication in OR6 cells (HCV-O strain, HuH-7-derived)", "test": "microbe, parasite or virus in culture", "source_text": "as §1, §3, §2\nOR6 cells, which had been cultured in general medium for subculture, were plated onto a 24-well plate (2×10^4 cells in 1 mL of medium for […] cell line per well) and cultured. After 24 hours, N-89 was added so as to achieve concentrations of 20 μM, a 2-fold dilution series from 20 μM (10, 5, 2.5, 1.3, 0.63, and 0.31 μM), and 0, or N-251 was added so as to achieve concentrations of 10 μM, a 2-fold dilution series from 10 μM (5, 2.5, 1.3, 0.63, 0.31, and 0.16 μM), and 0. The renilla luciferase activities were measured 72 hours after the culture. N-89 and N-251 were diluted with DMSO.\nas §4, §5"}, "[7]": {"tested_on": "HuH-7-derived HCV-replicon-replicating cells", "details": "Paeshuyse J et al., BBRC 2006; cited from earlier work"}}, "note": "Several values for one entry are separate records, joined by “and”; a condition that tells them apart may be missing. Identical values can stand only once.", "data": [{"molecule": "CC(C)n1c(/C=C/C(O)CC(O)CC(=O)O)c(-c2ccc(F)cc2)c2ccccc21", "note": "(centres unmarked) [FLV, Fluvastatin, reference compound]", "values": [{"measurement": "CC50 at 72 h", "setting": "[1]", "result": 21, "unit": "µM"}]}, {"molecule": "O=[N+]([O-])[O-].[K+]", "note": "[KNO3]", "values": [{"measurement": "change in luciferase activity, oxidizing agent alone", "setting": "[2]", "result": "no change"}]}, {"molecule": "[Na+].[O-][Cl+3]([O-])([O-])[O-]", "note": "[NaClO4]", "values": [{"measurement": "change in luciferase activity, oxidizing agent alone", "setting": "[2]", "result": "no change"}]}, {"molecule": "C[C@@H]1CC[C@H]2[C@@H](C)C(=O)O[C@@H]3O[C@@]4(C)CC[C@@H]1[C@]32OO4", "note": "[artemisinin, reference compound]", "values": [{"measurement": "CC50 at 72 h", "setting": "[3]", "result": 380, "unit": "µM"}, {"measurement": "luciferase activity, artemisinin in combination with vitamin E", "setting": "[4]; 100 μM + vitamin E 10 μM, 72 hours", "result": 53, "unit": "%"}, {"measurement": "luciferase activity, artemisinin alone", "setting": "[4]; 100 μM, 72 hours", "result": 23, "unit": "%"}, {"measurement": "canceling of the anti-HCV activity by vitamin E", "setting": "[4]", "result": "not canceled"}, {"measurement": "EC50", "setting": "[5]; Hepatitis C virus, ORL8, 72 h", "result": 23, "unit": "µM"}, {"measurement": "SI (CC50/EC50)", "setting": "[5]; ORL8 cells", "result": 16}, {"measurement": "EC50", "setting": "[6]; Hepatitis C virus, OR6, 72 h", "result": 81, "unit": "µM"}, {"measurement": "anti-HCV activity (judgement)", "setting": "[6]; OR6 and ORL8 cells", "result": "very weak anti-HCV activity"}, {"measurement": "SI (CC50/EC50)", "setting": "[6]; OR6 cells", "result": 5}, {"measurement": "anti-HCV activity", "setting": "[7]", "result": "weak"}, {"measurement": "CC50 at 72 h", "setting": "[1]", "result": 368, "unit": "µM"}]}, {"molecule": "IFN-α", "values": [{"measurement": "canceling of the anti-HCV activity by vitamin E", "setting": "[4]", "result": "slightly found"}]}, {"molecule": "vitamin E [reference compound]", "values": [{"measurement": "luciferase activity, vitamin E alone", "setting": "[4]; vitamin E 10 μM alone, 72 hours", "result": "217% and 194%"}, {"measurement": "increase of luciferase activity, vitamin E alone", "setting": "[4]; vitamin E 10 μM alone, 72 hours (Comparative Example 2)", "result": "about 3 fold"}]}]}
